ChEMBL document CHEMBL1201862, “PubChem BioAssay data set” (2004)
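48-hour exposure; five concentrations; linearly interpolated endpoints. GI50 = concentration required for 50% inhibition of growth.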 Active and inactive are the calls of the source. No stated cut-off is given here; in the data, active = GI50 up to about 1.1 µM and inactive = higher.

Key:
Test in all cases: NCI tumour cell line growth inhibition, 48 h
UACC-62 = tested on: UACC-62
RPMI-8226 = tested on: RPMI-8226
SN12C = tested on: SN12C
RXF 393 = tested on: RXF 393
U-251 = tested on: U-251
HCT-15 = tested on: HCT-15
SNB-19 = tested on: SNB-19
Malme-3M = tested on: Malme-3M
MDA-N = tested on: MDA-N
OVCAR-8 = tested on: OVCAR-8
PC-3 = tested on: PC-3
COLO 205 = tested on: COLO 205
NCI-H522 = tested on: NCI-H522
IGROV-1 = tested on: IGROV-1
CAKI-1 = tested on: CAKI-1
CCRF-CEM = tested on: CCRF-CEM
UO-31 = tested on: UO-31
OVCAR-4 = tested on: OVCAR-4
UACC-257 = tested on: UACC-257
MDA-MB-231 = tested on: MDA-MB-231
HOP-62 = tested on: HOP-62
LOX IMVI = tested on: LOX IMVI
HCC 2998 = tested on: HCC 2998
NCI-H226 = tested on: NCI-H226
MCF7 = tested on: MCF7
OVCAR-3 = tested on: OVCAR-3
SF-268 = tested on: SF-268
KM12 = tested on: KM12
786-0 = tested on: 786-0
Hs-578T = tested on: Hs-578T
SK-OV-3 = tested on: SK-OV-3
T47D = tested on: T47D
NCI-H23 = tested on: NCI-H23
MDA-MB-435 = tested on: MDA-MB-435
K562 = tested on: K562
BT-549 = tested on: BT-549
EKVX = tested on: EKVX
HCT-116 = tested on: HCT-116
OVCAR-5 = tested on: OVCAR-5
SK-MEL-5 = tested on: SK-MEL-5
SNB-75 = tested on: SNB-75
A498 = tested on: A498
SR = tested on: SR
DU-145 = tested on: DU-145
NCI/ADR-RES = tested on: NCI/ADR-RES
SF-295 = tested on: SF-295
ACHN = tested on: ACHN
HT-29 = tested on: HT-29
HL-60 = tested on: HL-60
M14 = tested on: M14
SW-620 = tested on: SW-620
TK-10 = tested on: TK-10
A549 = tested on: A549
SK-MEL-28 = tested on: SK-MEL-28
SK-MEL-2 = tested on: SK-MEL-2
MOLT-4 = tested on: MOLT-4
NCI-H460 = tested on: NCI-H460
SF-539 = tested on: SF-539
HOP-92 = tested on: HOP-92

In the case of `CC(=O)O[C@H]1CC[C@@]2(C)[C@@H](CC[C@@H]3[C@@H]2CC(=O)[C@@]2(C)[C@H]3C[C@@H]3CC(C)=CC(=O)[C@@H]32)C1`, the GI50 (UACC-62) is reported as 64.7 µM (inactive), the GI50 (RPMI-8226) is reported as 16 µM (inactive) and the GI50 (SN12C) is reported as 41 µM (inactive). The GI50 (RXF 393) was 30.2 µM (inactive), the GI50 (U-251) was > 100 µM (inactive) and the GI50 (HCT-15) was 98.2 µM. For the same molecule, the GI50 (SNB-19) was > 100 µM (inactive), the GI50 (Malme-3M) was 40.6 µM (inactive) and the GI50 (MDA-N) was 43.1 µM (inactive). The GI50 (OVCAR-8) was 59.7 µM (inactive), the GI50 (PC-3) was 44.1 µM (inactive) and the GI50 (COLO 205) was 58.5 µM (inactive). The GI50 (NCI-H522) was 39.5 µM (inactive), the GI50 (IGROV-1) was > 100 µM (inactive) and the GI50 (CAKI-1) was > 100 µM (inactive). For the same molecule, the GI50 (CCRF-CEM) was 36.1 µM (inactive), the GI50 (UO-31) was 23.2 µM (inactive) and the GI50 (OVCAR-4) was 56.5 µM (inactive). The GI50 (UACC-257) was 62.1 µM (inactive), the GI50 (MDA-MB-231) was > 100 µM (inactive) and the GI50 (HOP-62) was 55.8 µM (inactive). The GI50 (LOX IMVI) was > 100 µM (inactive), the GI50 (HCC 2998) was 71.3 µM (inactive) and the GI50 (NCI-H226) was > 100 µM (inactive). The GI50 (MCF7) was 58.3 µM (inactive), the GI50 (OVCAR-3) was 81.8 µM (inactive) and the GI50 (SF-268) was 36.2 µM (inactive). The GI50 (KM12) was 57 µM (inactive), the GI50 (786-0) was 39.5 µM (inactive) and the GI50 (Hs-578T) was 20.7 µM (inactive). The GI50 (SK-OV-3) was > 100 µM (inactive), the GI50 (T47D) was 40 µM (inactive) and the GI50 (NCI-H23) was > 100 µM (inactive). The GI50 (MDA-MB-435) was 58.6 µM (inactive), the GI50 (K562) was 40.5 µM (inactive) and the GI50 (BT-549) was 28.3 µM (inactive). The GI50 (EKVX) was 28.9 µM (inactive), the GI50 (HCT-116) was 49.5 µM (inactive) and the GI50 (OVCAR-5) was > 100 µM (inactive). The GI50 (SK-MEL-5) was 40.9 µM (inactive), the GI50 (SNB-75) was 30.1 µM (inactive) and the GI50 (A498) was > 100 µM (inactive). For the same molecule, the GI50 (SR) was 23.5 µM (inactive), the GI50 (DU-145) was 53.8 µM (inactive) and the GI50 (NCI/ADR-RES) was 59 µM (inactive). For the same molecule, the GI50 (SF-295) was 56.1 µM (inactive), the GI50 (ACHN) was 66.7 µM (inactive) and the GI50 (HT-29) was 31 µM (inactive). For the same molecule, the GI50 (HL-60) was 5.04 µM (inactive), the GI50 (M14) was 29.7 µM (inactive) and the GI50 (SW-620) was > 100 µM (inactive). For the same molecule, the GI50 (TK-10) was > 100 µM (inactive), the GI50 (A549) was 62.4 µM (inactive) and the GI50 (SK-MEL-28) was > 100 µM (inactive). The GI50 (SK-MEL-2) was > 100 µM (inactive).
With `N=c1oc2ccccc2cc1-c1nc2ccccc2c(=O)[nH]1` the GI50 (UACC-62) was 27.8 µM (inactive), the GI50 (RPMI-8226) was > 100 µM (inactive) and the GI50 (SN12C) was > 100 µM (inactive). For the same molecule, the GI50 (RXF 393) was 31.4 µM (inactive), the GI50 (U-251) was 32 µM (inactive) and the GI50 (HCT-15) was 78.2 µM. The GI50 (SNB-19) was 30.1 µM (inactive), the GI50 (Malme-3M) was 60.8 µM (inactive) and the GI50 (MDA-N) was > 100 µM (inactive). For the same molecule, the GI50 (OVCAR-8) was 60.3 µM (inactive), the GI50 (PC-3) was > 100 µM (inactive) and the GI50 (COLO 205) was > 100 µM (inactive). The GI50 (NCI-H522) was 14.7 µM (inactive), the GI50 (MOLT-4) was > 100 µM (inactive) and the GI50 (IGROV-1) was 6 µM (inactive). The GI50 (CAKI-1) was > 100 µM (inactive), the GI50 (NCI-H460) was 64.7 µM (inactive) and the GI50 (CCRF-CEM) was 79.4 µM (inactive). For the same molecule, the GI50 (UO-31) was 27.1 µM (inactive), the GI50 (OVCAR-4) was > 100 µM (inactive) and the GI50 (UACC-257) was > 100 µM (inactive). For the same molecule, the GI50 (MDA-MB-231) was 29.3 µM (inactive), the GI50 (HOP-62) was 22.7 µM (inactive) and the GI50 (LOX IMVI) was 54.5 µM (inactive). The GI50 (HCC 2998) was 90.2 µM (inactive), the GI50 (NCI-H226) was 29.7 µM (inactive) and the GI50 (MCF7) was 19.5 µM (inactive). For the same molecule, the GI50 (SF-268) was 29 µM (inactive), the GI50 (KM12) was 39.8 µM (inactive) and the GI50 (786-0) was 31.4 µM (inactive). The GI50 (Hs-578T) was 23.2 µM (inactive), the GI50 (SK-OV-3) was > 100 µM (inactive) and the GI50 (T47D) was > 100 µM (inactive). The GI50 (MDA-MB-435) was > 100 µM (inactive), the GI50 (K562) was > 100 µM (inactive) and the GI50 (BT-549) was 23.8 µM (inactive). The GI50 (EKVX) was 35.6 µM (inactive), the GI50 (HCT-116) was 42.9 µM (inactive) and the GI50 (OVCAR-5) was > 100 µM (inactive). The GI50 (SK-MEL-5) was > 100 µM (inactive), the GI50 (SNB-75) was 2.72 µM (inactive) and the GI50 (SR) was 42.9 µM (inactive). The GI50 (DU-145) was > 100 µM (inactive), the GI50 (NCI/ADR-RES) was 72.6 µM (inactive) and the GI50 (SF-295) was 32.7 µM (inactive). The GI50 (ACHN) was 22.1 µM (inactive), the GI50 (HT-29) was 39.1 µM (inactive) and the GI50 (HL-60) was 45.7 µM (inactive). The GI50 (M14) was > 100 µM (inactive), the GI50 (SW-620) was 72.3 µM (inactive) and the GI50 (TK-10) was 35.3 µM (inactive). The GI50 (SF-539) was 60.4 µM (inactive), the GI50 (A549) was 78.3 µM (inactive) and the GI50 (SK-MEL-28) was > 100 µM (inactive). For the same molecule, the GI50 (HOP-92) was 20 µM (inactive) and the GI50 (SK-MEL-2) was 58.9 µM (inactive).
With `Cc1ncc([N+](=O)[O-])n1CCNS(=O)(=O)CCCn1ncnc1[N+](=O)[O-]` the GI50 (UACC-62) was > 100 µM (inactive), the GI50 (RPMI-8226) was > 100 µM (inactive) and the GI50 (SN12C) was > 100 µM (inactive). The GI50 (RXF 393) was > 100 µM (inactive), the GI50 (U-251) was > 100 µM (inactive) and the GI50 (HCT-15) was greater than 100 µM. The GI50 (Malme-3M) was > 100 µM (inactive), the GI50 (MDA-N) was > 100 µM (inactive) and the GI50 (OVCAR-8) was > 100 µM (inactive). The GI50 (PC-3) was > 100 µM (inactive), the GI50 (COLO 205) was > 100 µM (inactive) and the GI50 (NCI-H522) was > 100 µM (inactive). The GI50 (MOLT-4) was > 100 µM (inactive), the GI50 (IGROV-1) was > 100 µM (inactive) and the GI50 (CAKI-1) was > 100 µM (inactive). The GI50 (NCI-H460) was > 100 µM (inactive), the GI50 (CCRF-CEM) was > 100 µM (inactive) and the GI50 (UO-31) was > 100 µM (inactive). The GI50 (OVCAR-4) was > 100 µM (inactive), the GI50 (UACC-257) was > 100 µM (inactive) and the GI50 (MDA-MB-231) was > 100 µM (inactive). For the same molecule, the GI50 (HOP-62) was > 100 µM (inactive), the GI50 (LOX IMVI) was > 100 µM (inactive) and the GI50 (NCI-H226) was > 100 µM (inactive). The GI50 (MCF7) was > 100 µM (inactive), the GI50 (OVCAR-3) was > 100 µM (inactive) and the GI50 (SF-268) was > 100 µM (inactive). For the same molecule, the GI50 (KM12) was > 100 µM (inactive), the GI50 (786-0) was > 100 µM (inactive) and the GI50 (Hs-578T) was > 100 µM (inactive). For the same molecule, the GI50 (SK-OV-3) was > 100 µM (inactive), the GI50 (T47D) was > 100 µM (inactive) and the GI50 (NCI-H23) was > 100 µM (inactive). For the same molecule, the GI50 (MDA-MB-435) was > 100 µM (inactive), the GI50 (K562) was > 100 µM (inactive) and the GI50 (BT-549) was > 100 µM (inactive). For the same molecule, the GI50 (EKVX) was > 100 µM (inactive), the GI50 (HCT-116) was > 100 µM (inactive) and the GI50 (OVCAR-5) was > 100 µM (inactive). The GI50 (SK-MEL-5) was > 100 µM (inactive), the GI50 (SNB-75) was > 100 µM (inactive) and the GI50 (A498) was > 100 µM (inactive). For the same molecule, the GI50 (SR) was > 100 µM (inactive), the GI50 (DU-145) was > 100 µM (inactive) and the GI50 (NCI/ADR-RES) was > 100 µM (inactive). For the same molecule, the GI50 (SF-295) was > 100 µM (inactive), the GI50 (ACHN) was > 100 µM (inactive) and the GI50 (HT-29) was > 100 µM (inactive). For the same molecule, the GI50 (HL-60) was > 100 µM (inactive), the GI50 (M14) was > 100 µM (inactive) and the GI50 (SW-620) was > 100 µM (inactive). For the same molecule, the GI50 (TK-10) was > 100 µM (inactive), the GI50 (SF-539) was > 100 µM (inactive) and the GI50 (A549) was > 100 µM (inactive). For the same molecule, the GI50 (SK-MEL-28) was > 100 µM (inactive), the GI50 (HOP-92) was > 100 µM (inactive) and the GI50 (SK-MEL-2) was > 100 µM (inactive).
